Strand notation (5' to 3'): a small letter for the sugar, then the base; units joined by * are phosphorothioate-linked, units joined directly phosphodiester-linked; [ ] holds rarer units or linkages, { } end groups; capitals alone tell only the bases. e = 2'-O-(2-methoxyethyl) (MOE); l = locked nucleic acid (LNA); [5mC] = 5-methylcytosine; d = 2'-deoxy (DNA)

For data set [1], the system named is monkey GCGR mRNA. Nature of the data set: Antisense inhibition of GCGR in primary monkey hepatocytes (Table 80). It counts as cell-based. Conditions: relative to untreated control cells. Here is the method:
Additional short antisense compounds targeted to a GCGR nucleic acid were tested for their effects on monkey GCGR mRNA in vitro. Cultured primary monkey hepatocytes were treated as described herein with 25, 50, 100 or 200 nM of short antisense compound. After the treatment period, RNA was isolated from the cells and GCGR mRNA levels were measured by quantitative real-time PCR, as described herein. GCGR mRNA levels were adjusted according to total RNA content as measured by RIBOGREEN®. Results are presented in Table 80 as percent reduction in GCGR mRNA, relative to untreated control cells.

The subject of data set [2] is rat DGAT2 mRNA. The experiment in a line: Dose-dependent inhibition of DGAT2 in A10 cells (Tables 82, 83). It counts as cell-based. The method, then:
Additional short antisense compounds targeted to DGAT2 mRNA were tested in vitro in a dose-response experiment. A10 cells were prepared as described above and treated with 6.25, 12.5, 25.0, 50.0, 100.0, and 200.0 nM short antisense compounds to determine if DGAT2 inhibition occurs in a dose-dependent manner. […] Results are presented as percent inhibition, relative to untreated control cells.
Additional short antisense compounds targeted to DGAT2 mRNA were tested in vitro. A10 cells were prepared as described above and treated with 0.62, 1.85, 5.56, 16.67, 50.0, and 150.0 nM short antisense compounds to determine if DGAT2 inhibition occurs in a dose-dependent manner. DGAT2 mRNA was measured using quantitative real-time PCR, as described herein. […] Results are presented as percent inhibition of rat DGAT2, relative to untreated control cells.

In data set [3] the test system is DGAT2 mRNA. The experiment in a line: Antisense inhibition of DGAT2 in A10 cells, 75 nM (Table 81). The data set is classed as cell-based, rat. Particulars: approximately 24 hours. Here is the method: Short antisense compounds targeted to a DGAT2 nucleic acid were tested for their effects on DGAT2 mRNA in vitro. Cultured A10 cells in a 96-well plate were treated with 75 nM of short antisense compound. After a treatment period of approximately 24 hours, RNA was isolated from the cells and DGAT2 mRNA levels were measured by quantitative real-time PCR, as described herein. DGAT2 mRNA levels were adjusted according to total RNA content as measured by RIBOGREEN®. Results are presented as percent inhibition of DGAT2, relative to untreated control cells in Table 81.

In data set [4] the test system is PTEN mRNA. Nature of the data set: PTEN mRNA levels in liver, kidney and fat, Balb/c mice, single i.p. 8 μmol/kg (Table 48). The data set is classed as in vivo, mouse. Particulars: 72 h, saline = 100. An excerpt: Each dose group consisted of four animals. Shown in Table 46 are the sequences and motifs of the PTEN antisense compounds used in this study. Bolded residues indicate 2′-O-methoxyethyl moieties (2′-MOE) and italicized residues indicate Methyleneoxy BNA nucleotides. Each antisense compound comprises phosphorothioate linkages throughout. In addition, the cytosine residues in the gap of ISIS 384073 and in the wings of ISIS 392056, ISIS 392057, ISIS 392061 and ISIS 392063 are replaced with 5-methylcytosines. Antisense compounds target published PTEN nucleic acids, including Genbank Accession No. U92437.1 (SEQ ID
Mice were sacrificed 72 hours following injection to determine serum transaminase levels (Table 47); liver and spleen weights (Table 47); and PTEN mRNA levels in liver, kidney and fat (Table 48), according to procedures described herein and well know to one of ordinary skill in the art.

The nature of data set [5]: HbA1c status in ZDF rat (Table 72). The data set is classed as in vivo. Particulars: ZDF rat, 400 nM/kg i.p. once a week. Here is the method:
ISIS 388625, 388626 and control oligo ISIS 388628 were analyzed for their effect on ZDF rat plasma glucose levels and HbA1c. The leptin receptor deficient Zucker diabetic fatty (ZDF) rat is a useful model for the investigation of type 2 diabetes. Diabetes develops spontaneously in these male rats at ages 8-10 weeks, and is associated with hyperphagia, polyuria, polydipsia, and impaired weight gain, symptoms which parallel the clinical symptoms of diabetes (Phillips M S, et al., 1996, Nat Genet. 13, 18-19). Six week old ZDF rats were injected intraperitoneally with short antisense compound at a dose of 400 nM/kg once a week for twelve weeks. Data are illustrated in Tables 71 and 72.

Data set [6] concerns GCGR mRNA. Nature of the data set: GCGR mRNA levels in liver and estimated ED50, C57/BL6 mice, single i.p. dose of MOE and methyleneoxy BNA gapmers (Tables 44, 45). It counts as in vivo, mouse. Particulars: liver. The method, then:
Eight-week old male C57/BL6 mice (Jackson Laboratory, Bar Harbor, Me.) were administered a single dose of GCGR antisense compound by intraperitonel (i.p.) injection at a concentration of 10, 3.2, 1, and 0.32 μmol·kg. Each dose group consisted of four animals. Shown in Table 43 are the sequences, motifs and conjugates of the GCGR antisense compounds used in this study. Bolded residues indicate 2′-O-methoxyethyl (2′-MOE) modifications and the italicized residues indicate methyleneoxy (4′-CH2—O-2′) BNA modifications. All antisense compounds comprise phosphorothioate internucleoside linkages throughout and each cytosine is replaced with 5-methylcytosine. GCGR antisense compounds target published GCGR nucleic acids, including Genbank Accession No. BC031885.1 (SEQ ID NO: 7).
To determine whether the phenotypic changes shown above correlated with a decrease in GCGR mRNA, treated animals were evaluated for levels of target mRNA in liver by RT, real time PCR according to methods described herein. Table 44 show results from direct comparisons of the antisense compounds targeting GCGR nucleic acid for their effect on target expression. Results are expressed as percent of saline control.

Data set [7] relates to rat SGLT2 mRNA. The experiment in a line: Rat SGLT2 mRNA in kidney, 1-10-1 and 1-10-2 MOE gapmers, Sprague-Dawley rats (Table 63). It counts as in vivo. An excerpt: 1-10-1 and 1-10-2 MOE gapmer antisense compounds, provided in Table 62, were designed to target different regions of the mouse or rat SGLT2 RNA. All short antisense compounds in Table 62 are chimeric oligonucleotides (“gapmers”) either 12 or 13 nucleotides in length, composed of a central “gap” segment consisting of ten 2′-deoxynucleotides, which are flanked on the 5′ side by a one-nucleoside “wing” and on the 3′ side by a two or one-nucleotide “wing”. […] All cytidine residues are 5-methylcytidines.
The short antisense compounds were analyzed for their effect on rat SGLT2 mRNA levels. Data are ranges taken from three experiments in which Male Sprague-Dawley rats (170-200 g) were dosed twice per week for three weeks with 450, 150 or 50 nmol/kg of either a 1-10-1 or 1-10-2 MOE gapmer given by intraperitoneal injection. Rats were sacrificed 48 hours following last administration and evaluated for SGLT2 mRNA levels in kidney. Target levels were determined by RT, real-time PCR as described by other examples herein. PCR results were normalized to an internal ISIS control.

For data set [8], the system named is mouse SGLT2 mRNA. Nature of the data set: Mouse SGLT2 mRNA in kidney, MOE versus Methyleneoxy BNA gapmers (Table 69). Conditions: Balb/c mouse kidney. The data set is classed as in vivo. The method, then:
The effect of ISIS 3796921-10-1 MOE gapmer and ISIS 3886252-8-2 MOE gapmer are compared with the effect of ISIS 3921701-10-1 Methyleneoxy BNA Gapmer and ISIS 3921732-8-2 Methyleneoxy BNA Gapmer (see Table 69) on mouse SGLT2 mRNA levels in vivo. Data are taken from three experiments in which male 6-week old Balb/c mice were dosed twice per week for three weeks with 5, 25 and 125 nmol/kg of either the ISIS 3796921-10-1 MOE gapmer or the ISIS 3886252-8-2 MOE gapmer given by intraperitoneal injection. Mice were sacrificed 48 hours following last administration and evaluated for SGLT2 mRNA levels in kidney. Target levels were determined by RT, real-time PCR as described by other examples herein. PCR results were normalized to an internal ISIS control. The data are expressed as percent change (“+” indicates an increase, “−” indicates a decrease) relative to saline treated animals and are illustrated in Table 69.

The mark [9] stands for this setting: 5 nmol/kg i.p. twice per week for three weeks.
[10] abbreviates: 25 nmol/kg i.p. twice per week for three weeks.
Setting [11] is: 125 nmol/kg i.p. twice per week for three weeks.

Turning to “327131 (antisense eA*eT*eG*dT*dT*dG*dG*d[5mC]*d[5mC]*dG*dT*eG*eG*eT) [compound 327131]”, the “percent reduction in GCGR mRNA” value in data set [1] (25 nM) is reported as 0%; in data set [1] (50 nM), −8%; in data set [1] (100 nM), −36%; in data set [1] (200 nM), −36%.
Consider “372618 (antisense eG*eT*dG*dG*dT*dA*d[5mC]*dA*dG*dG*dT*d[5mC]*eG*eA) [compound 372618]”, for which the “percent inhibition of rat DGAT2” value is 0% in data set [2] (0.62 nM (Table 83)); 0% in data set [2] (1.85 nM (Table 83)); 0% in data set [2] (5.56 nM (Table 83)); 0% in data set [2] (16.67 nM (Table 83)); 30% in data set [2] (50 nM (Table 83)); 60% in data set [2] (150 nM (Table 83)). Besides, the “percent inhibition of DGAT2” value in data set [2] (6.25 nM (Table 82)) was determined as 0%; in data set [2] (12.5 nM (Table 82)), 5%; in data set [2] (50.0 nM (Table 82)), 27%; in data set [2] (100.0 nM (Table 82)), 65%; in data set [2] (200.0 nM (Table 82)), 80%. In addition, the “% Control” value in data set [3] is 29 % Control.
For the substance “372624 (antisense eT*eG*dG*dT*d[5mC]*dT*dT*dG*dT*dG*dA*dT*eT*eG) [compound 372624]”, the “percent inhibition of rat DGAT2” value is 0% in data set [2] (0.62 nM (Table 83)); 0% in data set [2] (1.85 nM (Table 83)); 0% in data set [2] (5.56 nM (Table 83)); 1% in data set [2] (16.67 nM (Table 83)); 16% in data set [2] (50 nM (Table 83)); 38% in data set [2] (150 nM (Table 83)). Moreover, in data set [3], the “% Control” value came out at 56 % Control.
As to “384073 (antisense lG*lC*lT*dA*dG*d[5mC]*d[5mC]*dT*d[5mC]*dT*dG*dG*dA*lT*lT*lT) [compound 384073]”, in data set [4], the “% PTEN mRNA levels in Fat” value stood at 77%, the “% PTEN mRNA levels in Kidney” value worked out at 74% and the “% PTEN mRNA levels in Liver” value is given as 24%.
As for “388625 (eT*eG*dT*dT*d[5mC]*d[5mC]*dA*dG*d[5mC]*d[5mC]*e[5mC]*eA) [compound 388625]”, the “Percentage HbA1c” value in data set [5] (Day 40) is 6.5%; in data set [5] (Day 55), 5.8%; in data set [5] (Day 68) it was 4.3%.
Turning to “388628 (eT*eA*dG*d[5mC]*d[5mC]*dG*d[5mC]*d[5mC]*d[5mC]*dA*e[5mC]*eA) [compound 388628]”, the “Percentage HbA1c” value in data set [5] (Day 40) is listed as 8.0%; in data set [5] (Day 55), 9.1%; in data set [5] (Day 68) it was 7.8%.
Take “396145 (ATGGCTTCTCCATCATATCC; 5-10-5 MOE gapmer, chemistry not fully specified) [compound 396145]”: the results for the “GCGR mRNA levels” value in data set [6] (3.2 μmol/kg single i.p.) and in data set [6] (10 μmol/kg single i.p.) were 33% of saline control and 8% of saline control, respectively.
The like results for “396147 (CTTGGGCATGCTCGTCAGTC; 5-10-5 MOE gapmer, chemistry not fully specified) [compound 396147]” were, in that order, 68% of saline control and 28% of saline control.
“ISIS 382675 (eT*dA*dG*d[5mC]*d[5mC]*dA*d[5mC]*d[5mC]*dA*dA*d[5mC]*eT*eG)”: the “% change in SGLT2 expression relative to saline” value in data set [7] (50 nmol/kg i.p. twice per week for three weeks) is listed as −50%; in data set [7] (150 nmol/kg i.p. twice per week for three weeks) it was −65%; in data set [7] (450 nmol/kg i.p. twice per week for three weeks) it was −80%.
As for “ISIS 392170: 1-10-1 Methyleneoxy BNA Gapmer, SGLT2 (lT*dG*dT*dT*d[5mC]*d[5mC]*dA*dG*d[5mC]*d[5mC]*d[5mC]*lA)”, the entries for the “SGLT2 mRNA, percent change relative to saline treated animals” value in data set [8] (setting [9]), in data set [8] (setting [10]) and in data set [8] (setting [11]) were −23%, −54% and −69%, respectively.
The like results for “ISIS 392173: 2-8-2 Methyleneoxy BNA Gapmer, SGLT2 (lT*lG*dT*dT*d[5mC]*d[5mC]*dA*dG*d[5mC]*d[5mC]*l[5mC]*lA)” were, in that order, −44%, −57% and −75%.

The values are drawn from patent US8372967B2, “Compounds and methods for modulating expression of GCCR” (Isis Pharmaceuticals, Inc., priority 2006, dated 2013).
